Measurements: patent US20120156615A1, “CYCLIC COMPOUND, PROCESS FOR PRODUCTION OF THE CYCLIC COMPOUND, RADIATION-SENSITIVE COMPOSITION, AND METHOD FOR FORMATION OF RESIST PATTERN” (MITSUBISHI GAS CHEMICAL COMPANY, INC., priority 2009, published 2012)

Assay: Solubility of compound in safety solvent
Format: physicochemical
Details: for solubility in CHN (dissolved amount): solvent cyclohexanone (CHN); for solubility in PGME (dissolved amount): solvent propylene glycol monomethyl ether (PGME)
Method: (1) Solubility of Compound in Safety Solvent
The compounds obtained in Synthesis Examples 1 to 6 and Synthesis 1 to 4 were evaluated for the solubility in propylene glycol monomethyl ether (PGME) and cyclohexanone (CHN).
A: 20.0 wt %≦dissolved amount
B: 1.0 wt %≦dissolved amount<20.0 wt %
C: dissolved amount<1.0 wt %

| SMILES | solubility in CHN (dissolved amount) | solubility in PGME (dissolved amount) |
| --- | --- | --- |
| CC(C)c1ccc(C2c3cc(c(O)cc3O)C(c3ccc(C(C)C)cc3)c3cc(c(O)cc3O)C(c3ccc(C(C)C)cc3)c3cc(c(O)cc3O)C(c3ccc(C(C)C)cc3)c3cc2c(O)cc3O)cc1 (stereo not shown) [CR-1A] | B (1.0 wt %≦dissolved amount<20.0 wt %) | B (1.0 wt %≦dissolved amount<20.0 wt %) |
| Oc1cc(O)c2cc1C(c1ccc(C3CCCCC3)cc1)c1cc(c(O)cc1O)C(c1ccc(C3CCCCC3)cc1)c1cc(c(O)cc1O)C(c1ccc(C3CCCCC3)cc1)c1cc(c(O)cc1O)C2c1ccc(C2CCCCC2)cc1 (stereo not shown) [CR-4A] | B (1.0 wt %≦dissolved amount<20.0 wt %) | B (1.0 wt %≦dissolved amount<20.0 wt %) |
